Measured values as given in article PMC8948939 (Pharmaceutics, 2022).
Where two headings read alike, the source gives them in different places.

How the values were obtained:
[1] = Michaelis-Menten kinetics of voriconazole N-oxidation in human liver microsomes; type: in vitro ADME; details: human, human liver microsomes, pH 7.5
[2] = system: human liver microsomes (HLM); test: as above; type: in vitro ADME; details: N-oxidation of voriconazole; HLM 0.2 mg/mL
CYP2C19 = CYP2C19 (Homo sapiens, UniProt P33261); details: read-out: KM of VRC N-oxidation, recombinant CYP2C19, cited from earlier work
Sequence of CYP2C19 (P33261 whole entry): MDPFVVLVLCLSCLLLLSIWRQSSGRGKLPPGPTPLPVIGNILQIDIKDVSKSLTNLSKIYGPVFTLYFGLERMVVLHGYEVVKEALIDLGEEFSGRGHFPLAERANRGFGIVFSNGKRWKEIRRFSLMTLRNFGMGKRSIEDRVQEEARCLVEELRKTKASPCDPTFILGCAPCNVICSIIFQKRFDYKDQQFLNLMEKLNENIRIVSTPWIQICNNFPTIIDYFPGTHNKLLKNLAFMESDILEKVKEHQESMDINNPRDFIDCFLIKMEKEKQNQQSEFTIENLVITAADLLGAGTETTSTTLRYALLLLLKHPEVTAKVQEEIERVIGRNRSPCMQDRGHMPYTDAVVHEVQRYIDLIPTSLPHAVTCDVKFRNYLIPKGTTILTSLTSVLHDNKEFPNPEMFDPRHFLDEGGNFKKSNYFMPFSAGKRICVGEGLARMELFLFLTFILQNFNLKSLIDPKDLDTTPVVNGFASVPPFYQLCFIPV

[3] = cited from earlier work
CYP3A4 [4] = test: Contribution of CYP3A4 to voriconazole N-oxidation, extrapolation from rhCYP with ISEF; type: in vitro ADME; details: human, pH 7.5, VRC N-oxidation, read-out: extrapolated CLint,CYPi,HLM (CYP3A4)
From the text: Towards the Elucidation of the Pharmacokinetics of
Josefine Schulz 1, Antonia Thomas 1, Ayatallah Saleh 1,2, Gerd Mikus 1,3, Charlotte Kloft 1,† and Robin Michelet 1,*,† 1 Department of Clinical Pharmacy & Biochemistry, Institute of Pharmacy, Freie Universitaet Berlin, Kelchstraße 31, 12169 Berlin, Germany
2 Graduate Research Training Program PharMetrX, 12169 Berlin/Potsdam, Germany 3 Department of Clinical Pharmacology and Pharmacoepidemiology, University Hospital Heidelberg, Im Neuenheimer Feld 410, 69120 Heidelberg, Germany
* Correspondence: robin.michelet@fu-berlin.de; Tel.: +49-30-838-50659
† These authors contributed equally to this work
Supplementary Section S1. Marker reactions for CYP2C19, CYP2C9 and CYP3A4 […]
for CYP3A4 [1,2] were used to determine (i) intersystem extrapolation factors (ISEF), (ii) […]
(i) Experiments for the determination of Michaelis-Menten kinetics in HLM were performed at protein concentrations of 0.02, 0.04 and 0.05 mg/mL for the marker reactions of CYP2C19, CYP2C9 and CYP3A4 (n = 3 each), respectively. Two samples were taken from each incubation after 15 and 25 min for investigations on CYP2C19, after 5 and 10 min for CYP2C9 and after 7 and 12 min for CYP3A4, respectively. […]
were applied as substrate concentrations.
For investigations in rhCYP concentrations of 2.5 pmol/mL rhCYP2C19 (n = 3), […]
respectively. […]

[5] = taken from literature for IVIVE; ref 7 (supplement); cited from earlier work
CYP2C9 = CYP2C9 (Homo sapiens, UniProt P11712); set-up: purchased Corning Inc; details: read-out: KM of VRC N-oxidation; cited from earlier work
Sequence of CYP2C9 (P11712 whole entry): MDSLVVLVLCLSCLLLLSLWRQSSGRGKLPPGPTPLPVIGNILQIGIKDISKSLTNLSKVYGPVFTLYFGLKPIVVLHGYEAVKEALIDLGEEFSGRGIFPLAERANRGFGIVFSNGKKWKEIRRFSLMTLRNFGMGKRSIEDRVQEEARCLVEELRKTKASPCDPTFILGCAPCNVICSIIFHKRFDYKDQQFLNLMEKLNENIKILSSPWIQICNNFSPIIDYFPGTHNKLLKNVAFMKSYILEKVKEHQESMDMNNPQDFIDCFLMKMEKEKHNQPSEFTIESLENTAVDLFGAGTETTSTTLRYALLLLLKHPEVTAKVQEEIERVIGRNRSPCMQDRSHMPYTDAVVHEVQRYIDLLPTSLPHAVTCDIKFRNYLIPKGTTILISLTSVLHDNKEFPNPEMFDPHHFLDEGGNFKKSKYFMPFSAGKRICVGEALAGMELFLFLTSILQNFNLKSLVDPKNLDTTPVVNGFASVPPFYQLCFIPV

CYP3A4 [6] = details: mixed inhibition, cited from earlier work
HLM = HLM derived from three individuals, cited from earlier work
CYP3A4 [7] = biological target: T1, CYP3A4 (Homo sapiens, UniProt P08684); set-up: purchased Corning Inc; details: cited from earlier work
T1 sequence (P08684 whole entry): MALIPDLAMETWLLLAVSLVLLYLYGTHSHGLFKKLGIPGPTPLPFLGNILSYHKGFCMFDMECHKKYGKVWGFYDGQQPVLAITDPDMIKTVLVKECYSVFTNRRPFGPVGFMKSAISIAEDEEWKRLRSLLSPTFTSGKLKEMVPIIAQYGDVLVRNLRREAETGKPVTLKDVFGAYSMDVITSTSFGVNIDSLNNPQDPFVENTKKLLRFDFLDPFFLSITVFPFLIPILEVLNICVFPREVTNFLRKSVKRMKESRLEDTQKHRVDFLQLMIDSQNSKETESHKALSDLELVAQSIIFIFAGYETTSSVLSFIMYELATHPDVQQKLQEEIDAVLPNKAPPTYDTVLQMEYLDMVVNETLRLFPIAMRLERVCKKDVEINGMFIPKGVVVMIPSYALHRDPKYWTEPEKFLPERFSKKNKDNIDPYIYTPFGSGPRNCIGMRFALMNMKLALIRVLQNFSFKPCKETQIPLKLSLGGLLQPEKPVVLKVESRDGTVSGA

[8] = Michaelis-Menten kinetics of voriconazole N-oxidation in human intestine microsomes; type: in vitro ADME; details: human, human intestine microsomes, pH 7.5
[9] = system: human intestine microsomes (HIM); test: as above; type: in vitro ADME; details: N-oxidation of voriconazole; HIM 0.5 mg/mL
CYP3A4 [10] = biological target: T1, CYP3A4; test: Michaelis-Menten kinetics of voriconazole N-oxidation by rhCYP3A4

C[C@@H](c1ncncc1F)[C@](O)(Cn1cncn1)c1ccc(F)cc1F [VRC, voriconazole]
microsomal CLint ([1]; HLM, ratio of Vmax and KM): 8.76 µL/min/mg | Km ([1]; read-out: KM (95% CI)): 2.98 µM | Vmax,HLM (95% CI) [2]: 26.1 (25.4–26.8) pmol/min·mg | Km (CYP2C19; ref 31): 3.5 µM | Km (CYP2C19; ref 33): 14 ± 6 µM | bioavailability ([3]; CYP2C19 poor metabolizers): 94% | share of CYP3A4 in the metabolism ([3]; clinical trial, CYP2C19 normal and poor metabolizers with/without ritonavir, ref Mikus et al. 76): 34% | bioavailability ([3]; extensive metabolizers): 75% | microsomal CLint (CYP3A4 [4]; ISEF based on CLint of the marker reactions): 1.1 µL/min/mg | microsomal CLint (CYP3A4 [4]; ISEF based on Vmax): 2.48 µL/min/mg | Fraction unbound in plasma (fuP) [5]: 0.5 | Km (CYP2C9): 20 µM | Ki (CYP3A4 [6]; competitive part, ref Jeong et al. 43, read-out: Ki (competitive)): […] | Ki (CYP3A4 [6]; noncompetitive part, ref Jeong et al. 43, read-out: Ki (noncompetitive)): […] | Vmax of VRC N-oxidation (HLM): 9.3 pmol/min/mg | Km (HLM; read-out: KM of VRC N-oxidation): 8.1 µM | Km (CYP3A4 [7]; read-out: KM of VRC N-oxidation, ref 31): 235 µM | Km (CYP3A4 [7]; read-out: KM of VRC N-oxidation, ref 33): 16 ± 10 µM | Vmax of VRC N-oxidation (CYP3A4 [7]; ref 31): 0.14 pmol/min·pmol | Vmax of VRC N-oxidation (CYP3A4 [7]; ref 33): 0.05 ± 0.01 nmol/min·nmol | microsomal CLint ([8]; HIM, ratio of Vmax and KM): 1.52 µL/min/mg | Km ([8]; read-out: KM (95% CI)): 2.53 µM | Vmax,HIM (95% CI) [9]: 3.85 (3.70–4.00) pmol/min·mg | Vmax,rhCYP (95% CI) (CYP3A4 [10]; N-oxidation of voriconazole): 0.00893 (0.00827–0.00958) pmol/min·pmol | CLint of VRC N-oxidation (CYP3A4 [10]; ratio of Vmax and KM): 0.00742 µL/min/pmol
